Test results from patent US20250289813A1, “CDK INHIBITORS, PHARMACEUTICAL COMPOSITIONS, AND THERAPEUTIC APPLICATIONS” (ONQUALITY PHARMACEUTICALS CHINA LTD., priority 2022, published 2025).

What was measured:
BALB/c mice [1] = experiment: Irinotecan-induced diarrhea/constipation mouse model; assay type: in vivo; conditions: Day 7
Experimental: A compound was evaluated in an irinotecan-induced diarrhea/constipation mouse model for its protective effect on the cytotoxicity induced by a chemotherapy drug. On day 0, BALB/c mice (20-25 g, 7-8 weeks of age) were randomly divided into 3 groups (vehicle, irinotecan, and compound treatment) with 10 mice in each group. In the vehicle group, the mice were administered orally with the same medium in the same amount as used in the treatment group for the compound and then injected with the same medium in the same amount as used in the irinotecan group. In the irinotecan group, the mice were administered orally with the same medium in the same amount as used in the treatment group for the compound and then injected with irinotecan (240 mg/kg). In the treatment group, the mice were administrated orally with the compound and then injected with irinotecan (240 mg/kg). The compound was formulated with a 0.5% CMC solution. […]
(§1) On Day 7, the diarrhea grade of each mouse was determined according to the method described in Kurita et al., Cancer Chemother. Pharmacol. 2000, 46, 211-20, the disclosure of which is incorporated herein by reference in its entirety. The diarrhea remission rates were calculated using the formula of Diarrhea remission rate (%)=(diarrhea grade in 5-FU group−diarrhea grade in treatment group)/diarrhea grade in 5-FU group×100%.

[2] = system: MCF-7 human breast cancer cells; experiment: CELLTITER-GLO luminescent cell viability assay; assay type: cell-based; conditions: MCF7, 192 h, MCF-7 cells, 8 days, read-out: EC50 (Effect on Cell Viability)
Method in brief: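 MCF-7 cells grown in EMEM with 10% FBS and insulin, seeded at 3,000 cells/well and left to adhere overnight. Compound exposure lasted 8 days at 37 °C; viability was read by CellTiter-Glo luminescence.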

CDK6/cyclin D1 = CDK6/cyclin D1 (Homo sapiens (Human), UniProt Q00534); experiment: CDK6 Caliper Mobility Shift assay; assay type: biochemical
Sequence of CDK6/cyclin D1 (Q00534 whole entry): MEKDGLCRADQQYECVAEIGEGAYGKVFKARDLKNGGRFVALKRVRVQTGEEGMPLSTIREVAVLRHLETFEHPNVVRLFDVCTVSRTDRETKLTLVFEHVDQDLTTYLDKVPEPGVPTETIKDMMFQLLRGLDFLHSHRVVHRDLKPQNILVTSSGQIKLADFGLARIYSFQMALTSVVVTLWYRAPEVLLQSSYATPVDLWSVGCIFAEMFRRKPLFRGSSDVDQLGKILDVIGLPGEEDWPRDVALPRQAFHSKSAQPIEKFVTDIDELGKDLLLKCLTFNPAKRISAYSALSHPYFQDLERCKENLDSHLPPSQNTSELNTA
Sequence of CDK6/cyclin D1 (P24385 whole entry partner): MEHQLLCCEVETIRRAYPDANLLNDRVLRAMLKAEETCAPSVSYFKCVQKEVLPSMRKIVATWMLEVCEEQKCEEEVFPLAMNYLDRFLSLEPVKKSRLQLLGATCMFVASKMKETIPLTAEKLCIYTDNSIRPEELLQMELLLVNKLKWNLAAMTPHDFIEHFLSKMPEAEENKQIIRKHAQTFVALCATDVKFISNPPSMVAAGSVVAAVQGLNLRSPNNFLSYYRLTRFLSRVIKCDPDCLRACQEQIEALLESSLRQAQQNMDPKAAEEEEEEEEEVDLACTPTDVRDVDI
Method in brief: (§2)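 Caliper mobility-shift kinase assay with FAM-labeled peptide substrate. CDK4/cyclin D1 (15 nM) ran in 20 mM HEPES pH 7.5, 0.01% Triton X-100 at […] ATP; CDK6/cyclin D1 (7.5 nM) in 50 mM HEPES pH 7.5, 0.0015% BRIJ-35 at […] ATP. Compound was pre-incubated 10 min, reactions ran at 28 °C, and IC50 came from percent conversion inhibition.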

CDK4/cyclin D1 = CDK4/cyclin D1 (Homo sapiens (Human), UniProt P11802); experiment: CDK4 Caliper Mobility Shift assay; assay type: biochemical
Sequence of CDK4/cyclin D1 (P11802 whole entry): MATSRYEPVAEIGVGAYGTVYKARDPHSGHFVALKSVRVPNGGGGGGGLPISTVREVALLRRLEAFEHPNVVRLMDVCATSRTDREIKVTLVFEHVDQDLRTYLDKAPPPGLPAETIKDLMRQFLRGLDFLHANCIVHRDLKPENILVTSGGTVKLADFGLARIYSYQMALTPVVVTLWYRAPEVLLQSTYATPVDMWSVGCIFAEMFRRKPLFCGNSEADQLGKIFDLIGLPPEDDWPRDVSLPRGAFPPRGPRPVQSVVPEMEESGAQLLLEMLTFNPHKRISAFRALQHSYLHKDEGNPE
Sequence of CDK4/cyclin D1 (P24385 whole entry partner): as the sequence (P24385 whole entry partner) above
Method in brief: as §2

[3] = system: COLO205 human colon cancer cells; experiment: CASPASE-GLO 3/7 apoptosis assay (protection against chemotherapy drug induced cytotoxicity); assay type: cell-based; conditions: Irinotecan (20 μM)
Experimental: The CASPASE-GLO 3/7 apoptosis assay was used to evaluate the protective effect of a compound on the cytotoxicity induced by a chemotherapy drug. The apoptosis assay was carried out using COLO205 human colon cancer cells. The cells were grown at 37° C. in a 5% CO2 humidified incubator in PRIM1640 supplemented with 10% FBS and 0.01 mg/mL bovine insulin. The cells were seeded at 4,000 cells/well in a 96-well plate. After incubated overnight, the cells were pretreated with a compound at predetermined concentrations or a vehicle for 16 h, followed by addition of a chemotherapy drug. After incubated for another 48 h, the CASPASE-GLO 3/7 reagent (100 μL/well) was added. The cells were mixed on an orbital shaker for 10 min and incubated at room temperature for 2 h. The 96-well plate was read with an ENVISION reader.

BALB/c mice [4] = experiment: 5-FU-induced diarrhea mouse model; assay type: in vivo; conditions: day 7
Experimental: A compound was evaluated in a 5-FU-induced diarrhea mouse model for its protective effect on the cytotoxicity induced by the chemotherapy drug 5-FU. On day 0, BALB/c mice (20-25 g, 7-8 weeks of age) were randomly divided into 3 groups (vehicle, 5-FU, and compound treatment) with 10 mice in each group. In the vehicle group, the mice were administered orally with the same medium in the same amount as used in the treatment group for the compound and then injected with the same medium in the same amount as used in the 5-FU group. In the 5-FU group, the mice were administered orally with the same medium in the same amount as used in the treatment group for the compound and then injected with 5-FU (175 mg/kg). In the treatment group, the mice were administrated orally with the compound and then injected with 5-FU (175 mg/kg). The compound was formulated with a 0.5% CMC solution.
as §1, with “day” for “Day”, “Diarrhea” for “The diarrhea”, “group—diarrhea” for “group−diarrhea”

Row | EC50 [2] [nM] | IC50 (CDK6/cyclin D1) [nM] | IC50 (CDK4/cyclin D1) [nM] | SMILES | Remission Rate (diarrhea remission rate) (BALB/c mice [1]; 10 mg/kg oral, 6 h before and 6 h after irinotecan (240 mg/kg)) [%] | Remission Rate (diarrhea remission rate) (BALB/c mice [1]; 100 mg/kg oral, 6 h before and 6 h after irinotecan (240 mg/kg)) [%] | RPR (relative protection rate) ([3]; compound 2 μM) [%] | RPR (relative protection rate) ([3]; compound 20 μM) [%] | Remission Rate (diarrhea remission rate) (BALB/c mice [4]; 5 mg/kg oral, 12 h before 5-FU (175 mg/kg)) [%] | Remission Rate (diarrhea remission rate) (BALB/c mice [4]; 25 mg/kg oral, 12 h before 5-FU (175 mg/kg)) [%] | Remission Rate (diarrhea remission rate) (BALB/c mice [1]; 10 mg/kg oral, 4 h before and 8 h after irinotecan (240 mg/kg)) [%] | RPR (relative protection rate) ([3]; compound 5 μM) [%] | RPR (relative protection rate) ([3]; compound 50 μM) [%] | RPR (relative protection rate) ([3]; compound 100 μM) [%] | Remission Rate (diarrhea remission rate) (BALB/c mice [4]; 10 mg/kg oral, 8 h before and 4 h after 5-FU (175 mg/kg)) [%]
1 | 1000 to 10000 | ≤ 200 | ≤ 200 | CCC(=O)NS(=O)(=O)N1CCN(c2ccc(Nc3ncc4c(C)c(C(C)=O)c(=O)n(C5CCCC5)c4n3)nc2)CC1 [Compound A35, N-((4-(6-((6-Acetyl-8-cyclopentyl-5-methyl-7-oxo-7,8-dihydropyrido[2,3-d]-pyrimidin-2-yl)amino)pyridin-3-yl)piperazin-1-yl)sulfonyl)propionamide] | 50 | 70 | 83 | 81 | 40 | 50 |  |  |  |  | 
2 | ≤ 1000 | ≤ 200 | ≤ 200 | CC(=O)c1c(C)c2cnc(Nc3ccc(N4CCN(S(=O)(=O)OCOC(=O)C(C)(C)C)CC4)cn3)nc2n(C2CCCC2)c1=O [Compound B1, (((4-(6-((6-acetyl-8-cyclopentyl-5-methyl-7-oxo-7,8-dihydropyrido[2,3-d]-pyrimidin-2-yl)amino)pyridin-3-yl)piperazin-1-yl)sulfonyl)oxy)methyl pivalate] |  |  |  |  |  |  | 60 | 90 | 65 | 32 | 38
